Reference: ChEMBL document CHEMBL1124715 (J Med Chem, 1990)

molecular target: Serotonin 2 (5-HT2) receptor (Rattus norvegicus, UniProt P30994+P08909+P14842); experiment: Binding affinity against 5-hydroxytryptamine 2 receptor of rat frontal cortex using [3H]ketanserin radioligand; type: tissue-based

| Structure (SMILES) | Ki [nM] |
| --- | --- |
| COc1cc(C(=O)O)c(OC)cc1CC(C)N.Cl (centres undefined) | > 50000 |
| CCCCCCCCc1cc(OC)c(CC(C)N)cc1OC.Cl (centres undefined) | 3 |
| COc1cc(CC(C)N)c(OC)cc1Cc1ccccc1.Cl (centres undefined) | 7 |
| COc1cc(CC(C)N)c(OC)cc1C#N.Cl (centres undefined) | 2400 |
| CCC(=O)c1cc(OC)c(CC(C)N)cc1OC.Cl (centres undefined) | 735 |
| CCCCCCc1cc(OC)c(CC(C)N)cc1OC.Cl (centres undefined) | 2.5 |
| COc1cc(CC(C)N)c(OC)cc1CCCc1ccccc1.Cl (centres undefined) | 10 |
| CCCOC(=O)c1cc(OC)c(CC(C)N)cc1OC (centres undefined) | 2460 |
| COc1cc(C(=N)N)c(OC)cc1CC(C)N (centres undefined) | 7 |
| CCCNC(=O)c1cc(OC)c(CC(C)N)cc1OC (centres undefined) | 7550 |
| COc1cc(CC(C)N)c(OC)cc1I (centres undefined) | 19 |
| COc1cc(CC(C)N)c(OC)cc1N (centres undefined) | 26000 |
| COc1cc(CC(C)N)c(OC)cc1Cl (centres undefined) | 218 |
| CCCCOC(=O)c1cc(OC)c(CC(C)N)cc1OC (centres undefined) | 1530 |
| CCCCc1cc(OC)c(CC(C)N)cc1OC (centres undefined) | 58 |
| CCOc1cc(OC)c(CC(C)N)cc1OC (centres undefined) | 2200 |
| COc1cc(C(C)C)c(OC)cc1CC(C)N (centres undefined) | 76 |
| COc1cc(C(C)(C)C)c(OC)cc1CC(C)N (centres undefined) | 19 |
| COc1cc(CC(C)N)c(OC)cc1O (centres undefined) | > 50000 |
